{"source": "patent US20110166206A1", "about": "“UBIQUILIN REGULATION OF PRESENILIN ENDOPROTEOLYSIS, AND SUPPRESSION OF POLYGLUTAMINE-INDUCED TOXICITY IN CELLS” (UNIVERSITY OF MARYLAND BIOTECHNOLOGY INSTITUTE, priority 2005, published 2011)", "key": {"GFP-HttQ74-3 cell line": {"tested_on": "GFP-HttQ74-3 cell line", "type": "cell-based", "conditions": "100 uM, 5 hours exposure", "description": "FIG. 11. […] The 28Q-2 and 74Q-3 were used in most of our studies. The asterisk corresponds to a non-specific band that is detected by the GFP antibody. • B. Representative fluorescent images of GFP-HttPolyQ(28)-2 and GFP-HttPolyQ(74)-3 stable cell lines. Note that GFP fluorescence is located in both the cytoplasm and the nucleus, but that compact foci are only seen in the GFP-HttPolyQ(74)-3 cells. • C. Cells expressing expanded polyglutamine proteins are more sensitive to H2O2. The GFP-HftPolyQ(28)-2 and GFP-HttPolyQ(74)-3 stable cell lines were exposed to 200 μM concentration of H2O2 and after 5 hr, the cells were stained with both Hoechest 33342 and PI. […] Percentages of cell death calculated by determining the ratio of PI-positively stained cells to that of Hoechst-stained cells. […] Cell death was quantified as described in D above. • H. Representative images showing that ubiquilin-1 overexpression protects GFP-HttPolyQ(74)-3 expressing cells against serum withdrawal-induced cell death, in a dose-dependent manner. […] Bottom panel: Quantification of the spot intensity determined in three independent experiments.\nCell death was monitored either through examination of the nuclear morphology observed after Hoechst 33342 (1 μg/ml) staining, or through detecting the membrane selective permeability following 3 μM of propidium iodide (PI) staining. […]"}, "PS2 NTF [1]": {"tested_on": "PS2 NTF", "assay": "Cycloheximide time course of PS2 fragment production in PS2 inducible cells with or without UBQLN1 transfection", "type": "cell-based, human", "conditions": "PS2 inducible cell lysates, densitometry", "method": "(A) Time course experiment using ponA-induced PS2 cell line cultures transfected with or without UBQLN1 expression plasmids were treated with […] cycloheximide for 0-6 hours. Equal amounts of protein lysate were separated by 8.5% SDS-PAGE and subsequently immunoblotted with anti-UBQLN antibody. Transfected cells reveal a 4-fold increase in UBQLN1 levels. Next, the protein lysates were immunoblotted using anti-PS2 NH,-terminal antibody to detect FL and NTF PS2 levels, as indicated. Note both FL PS2 turnover and NTF production levels in transfected versus untransfected cell lysates.\n(B) Same experiment as (A) except FL PS expression was not induced using PonA.\n(C) Graphs showing relative levels of PS2 polypeptides in PS2 inducible cell lysates after densitometric analysis of the immunoreactive bands shown in panels A and B. The levels were calculated by normalization of the signals relative to that in Lane 1. The Microsoft Excel program was used to produce a best-fit line for each graph. […] However, this is completely opposite of NTF levels. UBQLN not only decreases NTF levels at every time-point in the experiment, but it also slows the rate of NTF production, as determined by measuring the slope of each line.\nHeLa and HEK293 cells were grown in DMEM supplemented with 10% FBS. PS1 and S2 inducible cell lines were generated by transfection of the pERV-expressing HEK293 cell line (Stratgene, IaIolla, Calif.) with FL human PS2 cDNA under the control of ponasteroneA (PonA)-inducible cassette in plasmid pEGSH (Stratagene). Stable integration of the pEGSH plasmid was achieved by selection for hygromycin resistance. PS expression was induced by adding PonA (final cont. 10 pM) to the medium. For proteasome inhibition studies, cultures were treated with 40 uM MG132 (Calbiochem, San Diego, Calif.) for time periods as indicated. […]\nTo this end, protein synthesis was inhibited using cyclohexamide (CHX) and PS fragment production was monitored over a six-hour time period in UBQLN transfected and untransfected lysates that were either induced or uninduced for PS expression. […]"}, "Pen-2": {"tested_on": "Pen-2", "assay": "UBQLN overexpression in PS inducible cells, Pen-2 immunoblot", "type": "cell-based", "conditions": "induced lysates", "description": "(§1) (A) Examination of Nicastrin, Aph-1 and Pen-2 levels in PS1 cells lines that were either not induced (lanes 1 and 3) or induced with PonA (lanes 2 and 4) and either left untransfected (lanes 1 and 2) or transfected with UBQLN1 cDNA (lanes 3 and 4). Equivalent amounts of protein lysates were separated by 10% SDS-PAGE and immunoblotted with the appropriate antibodies. The filter was then reprobed an anti-actin to ensure equal loading. UBQLN overexpression decreases Pen-2 and Nicastrin levels.\n(C) Densitometric analysis was used to quantify the extent of reduction. Each experiment was repeated more than three times.\n(§2) Preparation of protein lysates, SDS-PAGE and immunoblotting of proteins were described previously. Primary antibodies used were rabbit anti-PS2 loop and rabbit anti-PS2 NH,-terminus, both raised to GST-PS2 fusion proteins; rabbit anti-ubiquilin [43] which reacts with UBQLN1 and UBQLN2 polypeptides; rat anti-PS1 NH2,-terminus (Chemicon International, Temecula, Calif.); rabbit anti-PS1 loop raised to GST-PS1 fusion proteins; goat anti-p27 and goat anti-actin (Santa Cruz Biotechnology, Santa Cruz, Calif.); mouse monoclonal anti-tubulin (Sigma-Aldrich, St. Louis, Mo.); rabbit anti-nicastrin (Abeam, Cambridge, Mass.), rabbit anti-Pen-2 (Zymed, San Francisco, Calif.); and rabbit anti-Aph-la (Covance, Berkeley, Calif.). […]"}, "Nicastrin": {"tested_on": "Nicastrin", "assay": "UBQLN overexpression in PS inducible cells, Nicastrin immunoblot", "type": "cell-based", "conditions": "UBQLN overexpressed", "description": "as §1, §2"}, "Aph-1": {"tested_on": "Aph-1", "assay": "UBQLN overexpression in PS inducible cells, Aph-1 immunoblot", "type": "cell-based", "conditions": "UBQLN overexpressed", "description": "as §1, §2"}, "PS2 NTF [2]": {"tested_on": "PS2 NTF", "assay": "Pulse-chase of PS2 NTF turnover with or without UBQLN overexpression", "type": "cell-based", "conditions": "35 hour chase, with vs without UBQLN overexpression"}}, "data": [{"compound": "OO", "note": "[H2O2]", "values": [{"measurement": "cell death", "setting": "GFP-HttQ74-3 cell line", "result": "approximately 30%"}]}, {"compound": "UBQLN: ubiquilin protein overexpressed from cDNA plasmids, isoform not specified at the place", "values": [{"measurement": "FL PS2 levels", "setting": "PS2 NTF [1]", "result": "increases FL PS2 levels dramatically"}, {"measurement": "reduction of Pen-2 levels", "setting": "Pen-2", "result": 2, "unit": "fold"}, {"measurement": "levels of mature Nicastrin", "setting": "Nicastrin", "result": "decreased"}, {"measurement": "Aph-1 levels", "setting": "Aph-1", "result": "remain steady"}, {"measurement": "turnover of PS2 NTF", "setting": "PS2 NTF [2]", "result": "no significant difference"}]}]}
